Measured values taken from US20030055003A1, “Use of copper chelators to inhibit the inactivation of protein C” (priority 2001, published 2003).
Where “and” joins values, the source holds several entries; their conditions need not be identical. Equal values may be shown once. Where a SMILES comes first, the peptide text is derived from it.

Key:
[1] = biological target: T1, activated protein C (APC) (Homo sapiens, UniProt P04070); experiment: APC activity assay (Accucolor assay, modified for aqueous environment); format: biochemical
T1 construct: purchased Sigma (St. Louis, Mo.) P2200
T1 sequence (P04070 212-461 limits assumed): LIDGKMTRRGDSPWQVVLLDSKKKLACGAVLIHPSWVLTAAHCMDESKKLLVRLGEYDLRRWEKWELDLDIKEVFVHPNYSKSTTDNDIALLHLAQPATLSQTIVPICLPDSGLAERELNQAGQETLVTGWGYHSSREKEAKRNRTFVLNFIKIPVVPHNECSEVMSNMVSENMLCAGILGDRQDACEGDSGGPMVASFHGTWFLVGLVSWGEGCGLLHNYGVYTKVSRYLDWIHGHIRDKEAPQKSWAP
T1 sequence (P04070 43-197 limits assumed): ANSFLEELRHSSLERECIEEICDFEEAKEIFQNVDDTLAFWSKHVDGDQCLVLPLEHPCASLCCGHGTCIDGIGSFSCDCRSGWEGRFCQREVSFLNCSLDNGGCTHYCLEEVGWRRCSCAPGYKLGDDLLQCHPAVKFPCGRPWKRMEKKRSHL
Description: Materials. The human albumin N-terminus analogue, d-DAHK, was synthesized by Bowman Research, Ltd (Newport, Wales, U.K.). The assay for APC anticoagulant activity was the Accucolor™ calorimetric assay (Sigma Diagnostics, St. Louis, Mo.). […] Copper content of APC was determined by graphite furnace atomic absorption (Galbraith Laboratories, Knoxville, Tenn.).
APC activity assay. The APC assay, originally designed for plasma samples (Francis et al., Am. J. Clin. Pathol. 87, 619-625 (1987)) was modified for use in a clean, aqueous environment. […] Experiments were performed in a 96-well plate. […] Protein C substrate (2 mg/L) was then added to each well and incubated for ten minutes at 37° C. Concentrated acetic acid was added to each well to stop the reaction and the results were read at 410 nm on a microplate fluorescence reader (Model FL600, Bio-Tek Instruments, Inc., Winooski, Vt.).

[2] = Model of the blood brain barrier; format: in vitro ADME
Text: In P1, Xaa1 is most preferably Asp, Xaa2 is most preferably Ala, and Xaa3 is most preferably Lys (see above). Thus, the preferred sequences of P1 are Asp Ala His and Asp Ala His Lys [SEQ ID NO: 1]. Most preferably the sequence of P1 is Asp Ala His Lys [SEQ ID NO: 1]. Asp Ala His is the minimum sequence of the N-terminal metal-binding site of human serum albumin necessary for the high-affinity binding of Cu(lI) and Ni(II), and Lys has been reported to contribute to the binding of these metal ions to this site. […] Other preferred sequences for P, include Thr Leu His (the N-terminal sequence of human a-fetoprotein), Arg Thr His (the N-terminal sequence of human sperm protamin HP2) and HMS HMS His (a synthetic peptide reported to form extremely stable complexes with copper; see Mlynarz et al., Speciation 98: Abstracts, Apr. 21, 1998, http://www.jate.uszeged.hu/spec98/abstr/mlynar.html).

D-Asp D-Ala D-His D-Lys [d-DAHK]
increase over baseline APC activity, chelator alone ([1]; 40 μM chelator with APC 2 mg/L, no added copper, 30 min 37° C., mean±SD): 18.2%±13.0
protection of copper-induced inhibition of APC, lower d-DAHK:CuCl2 ratios ([1]; d-DAHK:CuCl2 ratios below 2:1 (1:4, 1:2, 1:1)): no significant protection
increase of APC activity over baseline, d-DAHK:CuCl2 2:1 ([1]; ratio 2:1 d-DAHK:CuCl2, 30 min 37° C.): 12.9%±1.1
increase of APC activity over baseline, d-DAHK:CuCl2 4:1 ([1]; ratio 4:1 d-DAHK:CuCl2, 30 min 37° C.): 14.8%±12.7

[Cl][Cu][Cl] [CuCl2, reference compound]
overall mean decrease in APC activity compared to baseline ([1]; 10 μM CuCl2, mean of two separate experiments): 26.0%±11.8
decrease in APC activity compared to baseline ([1]; 10 μM CuCl2 with APC 2 mg/L, 30 min 37° C., single experiment, mean±SD, n=3): 27.9%±15.5 and 24.1%±9.7

C[C@H](NC(=O)[C@@H](N)CC(=O)O)C(=O)N[C@@H](Cc1c[nH]cn1)C(=O)N[C@@H](CCCCN)C(=O)O [Asp Ala His Lys] (H-DAHK-OH; N-terminus and C-terminus assumed)
passage through a model of the blood brain barrier [2]: pass through a model of the blood brain barrier
